Source: patent US6274715A, “Tricyclic erythromycin derivatives” (priority 1997, dated 2001)
In brackets after ≈: the same amount, converted by molar mass.

Assays:
Format in all cases: cell-based
STR[…] 508 = test: In vitro antibacterial activity, MIC, BHI agar dilution; conditions: S. agalactiae CMX 508, unit assumed
Outline: (§1)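 Agar dilution in BHI: plates inoculated with 1:100 dilutions of organisms (1:10 for Micrococcus and Streptococcus), incubated 20-24 h at 35-37° C, then inspected for the lowest inhibitory concentration against a drug-free growth control.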

M[…] ATCC 4698 = test: as above; conditions: M. luteus ATCC 4698, unit assumed
Outline: as §1

EN[…] ATCC 8043 = test: as above; conditions: E. faecium ATCC 8043, unit assumed
Outline: as §1

M[…] ATCC 9341 = test: as above; conditions: M. luteus ATCC 9341, unit assumed
Outline: as §1

[1] = test system: STREPTOCOCCUS BOVIS A-5169; test: as above; conditions: S. bovis A-5169, unit assumed
[2] = test system: STREPTOCOCCUS PYOGENES EES61; test: as above; conditions: S. pyogenes EES61, unit assumed
ESCHERICHIA COLI SS = test: as above; conditions: E. coli SS, unit assumed
[3] = test system: STAPHYLOCOCCUS AUREUS ATCC 6538P; test: as above; conditions: S. aureus ATCC 6538P, 35-37° C., 20 to 24 hours, unit assumed
[4] = test system: STREPTOCOCCUS PYOGENES PIU 2548; test: as above; conditions: S. pyogenes PIU 2548, unit assumed
[5] = test system: PROVIDENCIA STUARTII CMX 640; conditions: P. stuartii CMX 640; BHI agar; unit assumed
CANDIDA ALBICANS CCH 442 = test: In vitro antibacterial activity, MIC, BHI agar dilution; conditions: C. albicans CCH 442, unit assumed
[6] = test system: STAPHYLOCOCCUS EPIDERMIDIS 3519; conditions: S. epidermidis 3519; BHI agar; unit assumed
[7] = test system: STAPHYLOCOCCUS AUREUS A5177; test: In vitro antibacterial activity, MIC, BHI agar dilution; conditions: S. aureus A5177, unit assumed
[8] = test system: PSEUDOMONAS AERUGINOSA 5007; test: as above; conditions: P. aeruginosa 5007, unit assumed
[9] = test system: PSEUDOMONAS AERUGINOSA DPHD-5263; test: as above; conditions: P. aeruginosa DPHD-5263, unit assumed
[10] = test system: STAPHYLOCOCCUS AUREUS 1775; test: as above; conditions: S. aureus 1775, unit assumed
PSEUDOMONAS CEPACIA 296I = test: as above; conditions: P. cepacia 296I, unit assumed
ESCHERICHIA COLI KNK 437 = conditions: E. coli KNK 437; BHI agar; unit assumed
[11] = test system: STAPHYLOCOCCUS AUREUS A-5278; test: In vitro antibacterial activity, MIC, BHI agar dilution; conditions: S. aureus A-5278, unit assumed
ESCHERICHIA COLI H560 = test: as above; conditions: E. coli H560, unit assumed
[12] = test system: PSEUDOMONAS AERUGINOSA BMH10; test: as above; conditions: P. aeruginosa BMH10, unit assumed
ESCHERICHIA COLI DC-2 = test: as above; conditions: E. coli DC-2, unit assumed
[13] = test system: ENTEROBACTER AEROGENES ATCC 13048; test: as above; conditions: E. aerogenes ATCC 13048, unit assumed
[14] = test system: STREPTOCOCCUS PYOGENES 930; test: as above; conditions: S. pyogenes 930, unit assumed
ESCHERICHIA COLI JUHL = conditions: E. coli JUHL; BHI agar; unit assumed
[15] = test system: STAPHYLOCOCCUS AUREUS NCTC10649M; test: In vitro antibacterial activity, MIC, BHI agar dilution; conditions: S. aureus NCTC10649M, unit assumed
[16] = test system: PSEUDOMONAS AERUGINOSA K799/61; test: as above; conditions: P. aeruginosa K799/61, unit assumed
[17] = test system: PSEUDOMONAS AERUGINOSA K799/WT; test: as above; conditions: P. aeruginosa K799/WT, unit assumed
[18] = test system: KLEBSIELLA PNEUMONIAE ATCC 8045; test: as above; conditions: K. pneumoniae ATCC 8045, unit assumed
[19] = test system: STAPHYLOCOCCUS AUREUS CMX 553; test: as above; conditions: S. aureus CMX 553, unit assumed
[20] = test system: PSEUDOMONAS AERUGINOSA DPHD-2862; test: as above; conditions: P. aeruginosa DPHD-2862, unit assumed
[21] = test system: STAPHYLOCOCCUS AUREUS CMX 642A; test: as above; conditions: S. aureus CMX 642A, unit assumed
[22] = test system: MYCOBACTERIUM SMEGMATIS ATCC 114; test: as above; conditions: M. smegmatis ATCC 114, unit assumed

CC[C@H]1OC(=O)[C@H](C)C(=O)[C@H](C)[C@@H](O[C@@H]2O[C@H](C)C[C@H](N(C)C)[C@H]2O)[C@](C)(OC)C[C@@H](C)C2=N[C@H](COCc3ccccc3F)CN3C(=O)O[C@@]1(C)[C@H]3[C@H]2C [Example 102]
MIC (STR[…] 508): 0.01 mg/L (≈ 0.0129 µM) | MIC (M[…] ATCC 4698): 0.02 mg/L (≈ 0.0258 µM) | MIC (EN[…] ATCC 8043): 0.01 mg/L (≈ 0.0129 µM) | MIC (M[…] ATCC 9341): ≤ 0.005 mg/L | MIC [1]: 0.01 mg/L (≈ 0.0129 µM) | MIC [2]: 0.01 mg/L (≈ 0.0129 µM) | MIC (ESCHERICHIA COLI SS): 0.39 mg/L (≈ 0.503 µM) | MIC [3]: 0.2 mg/L (≈ 0.258 µM) | MIC [4]: 0.2 mg/L (≈ 0.258 µM) | MIC [5]: > 100 mg/L | MIC (CANDIDA ALBICANS CCH 442): > 100 mg/L | MIC [6]: 0.2 mg/L (≈ 0.258 µM) | MIC [7]: 0.1 mg/L (≈ 0.129 µM) | MIC [8]: > 100 mg/L | MIC [9]: > 100 mg/L | MIC [10]: > 100 mg/L | MIC (PSEUDOMONAS CEPACIA 296I): 50 mg/L (≈ 64.4 µM) | MIC (ESCHERICHIA COLI KNK 437): > 100 mg/L | MIC [11]: > 100 mg/L | MIC (ESCHERICHIA COLI H560): 50 mg/L (≈ 64.4 µM) | MIC [12]: > 100 mg/L | MIC (ESCHERICHIA COLI DC-2): > 100 mg/L | MIC [13]: > 100 mg/L | MIC [14]: > 100 mg/L | MIC (ESCHERICHIA COLI JUHL): 100 mg/L (≈ 129 µM) | MIC [15]: 0.1 mg/L (≈ 0.129 µM) | MIC [16]: 3.1 mg/L (≈ 4 µM) | MIC [17]: > 100 mg/L | MIC [18]: > 100 mg/L | MIC [19]: 0.1 mg/L (≈ 0.129 µM) | MIC [20]: > 100 mg/L | MIC [21]: 0.2 mg/L (≈ 0.258 µM) | MIC [22]: 0.01 mg/L (≈ 0.0129 µM)

CC[C@H]1OC(=O)[C@H](C)C(=O)[C@H](C)[C@@H](O[C@@H]2O[C@H](C)C[C@H](N(C)C)[C@H]2O)[C@](C)(OC)C[C@@H](C)C2=N[C@H](COCc3ccc(Br)cc3)CN3C(=O)O[C@@]1(C)[C@H]3[C@H]2C [Example 103]
MIC (STR[…] 508): ≤ 0.005 mg/L | MIC (M[…] ATCC 4698): ≤ 0.005 mg/L | MIC (EN[…] ATCC 8043): ≤ 0.005 mg/L | MIC (M[…] ATCC 9341): ≤ 0.005 mg/L | MIC [1]: ≤ 0.005 mg/L | MIC [2]: ≤ 0.005 mg/L | MIC (ESCHERICHIA COLI SS): 0.39 mg/L (≈ 0.466 µM) | MIC [3]: 0.05 mg/L (≈ 0.0597 µM) | MIC [4]: 0.05 mg/L (≈ 0.0597 µM) | MIC [5]: > 100 mg/L | MIC (CANDIDA ALBICANS CCH 442): 50 mg/L (≈ 59.7 µM) | MIC [6]: 0.05 mg/L (≈ 0.0597 µM) | MIC [7]: 0.05 mg/L (≈ 0.0597 µM) | MIC [8]: > 100 mg/L | MIC [9]: > 100 mg/L | MIC [10]: 100 mg/L (≈ 119 µM) | MIC (PSEUDOMONAS CEPACIA 296I): 50 mg/L (≈ 59.7 µM) | MIC (ESCHERICHIA COLI KNK 437): > 100 mg/L | MIC [11]: 100 mg/L (≈ 119 µM) | MIC (ESCHERICHIA COLI H560): 100 mg/L (≈ 119 µM) | MIC [12]: > 100 mg/L | MIC (ESCHERICHIA COLI DC-2): 100 mg/L (≈ 119 µM) | MIC [13]: > 100 mg/L | MIC [14]: 25 mg/L (≈ 29.9 µM) | MIC (ESCHERICHIA COLI JUHL): 100 mg/L (≈ 119 µM) | MIC [15]: 0.05 mg/L (≈ 0.0597 µM) | MIC [16]: 0.78 mg/L (≈ 0.932 µM) | MIC [17]: > 100 mg/L | MIC [18]: > 100 mg/L | MIC [19]: 0.05 mg/L (≈ 0.0597 µM) | MIC [20]: > 100 mg/L | MIC [21]: 0.05 mg/L (≈ 0.0597 µM) | MIC [22]: 0.2 mg/L (≈ 0.239 µM)
